Data as given in patent US9718771B2, “Aniline derivative, pharmaceutical composition containing same, and use thereof” (Kissei Pharmaceutical Co., Ltd., priority 2014, dated 2017).
Each block holds one compound with its values, some of them ahead of it.

What was measured:
blood lymphocytes = test: Confirmation test for reduction effects on the number of lymphocytes; type: in vivo, Male Sprague-Dawley rats; conditions: rat, oral; for Number of lymphocytes (% of Vehicle) After 6 hours: 6 hours after administration; for Number of lymphocytes (% of Vehicle) After 24 hours: 24 hours after administration; for Number of lymphocytes (% of Vehicle) After 48 hours: 48 hours after administration
Method: Confirmation Test for Reduction Effects on the Number of Lymphocytes
Reduction effects on the number of blood lymphocytes by test compounds were confirmed using Male Sprague-Dawley rats (Japan SLC, 7-weeks-old in use). Administration solutions for test compounds were prepared on hot-plate at 50° C. After test compounds were dissolved by DMSO (dimethyl sulfoxide, Wako Pure Chemicals) of 1/10 volume of the total volume, WellSolve (Celeste) of 1/10 volume of the total volume was added to this solution. Further, distilled water (Otsuka Pharmaceutical Factory) of 8/10 volume of the total volume was added to this solution, and the administration solutions for test compounds were prepared. A solution, prepared in the same volume ratios of DMSO. WellSolve and distilled water as the administration solution for test compounds, was used as a solvent (Vehicle). Vehicle or test compound was administered orally to rats at 1 mL/body. After 6, 24 and 48 hours from administration of vehicle or test compounds, rats were held on the board at supine position under inhalation anesthesia with isoflurane (Abbott Japan). Blood samples (200 to 250 μL) were collected from the cervical vein of this rat using 1 mL syringes with needles of 25G. The collected blood samples were transferred to a microtube treated with EDTA-2K (Japan Becton Dickinson), and stored at room temperature after gently mixing with inversion. The number of lymphocytes was measured by ADVIA (registered mark) (Bayer), which is a multi-parameter automated blood cell counter using this blood samples. The average number of lymphocytes in vehicle-treated group (vehicle group) was defined as 100%, and the average number of lymphocytes in each test compound-treated group was calculated as % of vehicle. As Comparative Example 2, 1-{5-[1-(4-chloro-3-methyl-phenyl)-propylamino]-2-methyl-benzyl}-azetidine-3-carboxylic acid (patent literature 1, Example 4) was evaluated as well.

human S1P1 (EDG-1) = human S1P1 (EDG-1) (Homo sapiens (Human), UniProt P21453); test: Confirmation test of antagonistic activity for human S1P1 receptor (35S-GTP binding, cell membranes); type: biochemical; conditions: inhibition of 35S-GTP binding induced by S1P1 receptor selective agonist; HEK293 membranes expressing human S1P1
human S1P1 (EDG-1), sequence (P21453 whole entry): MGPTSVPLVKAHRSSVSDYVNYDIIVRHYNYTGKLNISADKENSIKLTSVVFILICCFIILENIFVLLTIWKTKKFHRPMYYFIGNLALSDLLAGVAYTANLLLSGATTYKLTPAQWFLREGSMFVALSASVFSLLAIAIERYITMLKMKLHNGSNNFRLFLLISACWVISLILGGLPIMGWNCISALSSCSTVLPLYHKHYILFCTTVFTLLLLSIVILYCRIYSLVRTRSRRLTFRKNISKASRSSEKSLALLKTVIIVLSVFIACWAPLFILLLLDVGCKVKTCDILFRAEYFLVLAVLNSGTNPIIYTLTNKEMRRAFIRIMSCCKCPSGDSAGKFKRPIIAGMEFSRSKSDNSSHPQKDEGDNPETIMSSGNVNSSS
Method: Confirmation Test of Antagonistic Activity for Human S1P1 Receptor
Test compounds were tested by reduction of functional binding activity of ^35S-GTP (guanosine 5′-O-[gamma-thio] triphosphate, PerkinElmer) to G protein using cell membranes expressing human S1P1 (EDG-1). S1P1-pcDNA3.1/V5-His-Topo vector was prepared by inserting cDNA (NM_001400) encoding human S1P1 into the expression vector, pcDNA3.1/V5-His-Topo (registered trademark) (Invitrogen). Next, the above S1P1-pcDNA3.1 vector was transfected into HEK293 cells by Lipofectamine2000 (registered trademark) (Invitrogen). The transfected cells were incubated with D-MEM liquid medium each containing 10% FBS (Fetal bovine serum), 100 U/mL penicillin, 100 μg/mL streptomycin and 1 mg/mL Geneticin (registered trademark) (Invitrogen) in an incubator under the condition of 5% CO2 at 37° C. and Geneticin (registered mark)-resistant cell line stably expressing S1P1 were obtained. The obtained stably S1P1-expressing cells were incubated with D-MEM liquid medium each containing 10% FBS and 0.5 mg/mL Geneticin (registered trademark) in an incubator under the condition of 5% CO2 at 37° C. The cells grown to confluence were harvested by a buffer solution containing 50 mM Tris, 2 mM EDTA (ethylmediaminetetraacetic acid) and 125 mM sodium chloride, and centrifuged at 1880×g, 4° C. for 10 minutes. After a supernatant was removed, a cell pellet was resuspended by the same buffer solution. For making cell membranes fragile, this cell suspension was frozen at −80° C. and then thawed. The cells were centrifuged at 1880×g, 4° C. for 10 minutes, and a supernatant was removed. The cell pellet was suspended by adding the same buffer solution and a fracture solution (10 mM sodium bicarbonate and 5 mM EDTA, pH 7.5) at a ratio of 2:1. The cells were fractured by subjecting the cell suspension to ultrasonication, and a cell membrane fraction was isolated by centrifugation at 1880×g, 4° C. for 10 minutes and ultracentrifugation of the supernatant at 80000×g, 4° C. for 30 minutes. A pellet of the cell membrane fraction was suspended by the fracture solution containing protease inhibitor cocktail (Roche) and stored at −80° C. until use. A protein concentration of the cell membrane fraction was determined using BCA Protein Assay Kit (Pierce) in accordance with an attached protocol.
Inhibitory activity evaluation was performed by multi-screen (registered trademark) HTS 96-well plate (Millipore) using the cell membrane fraction stably expressing S1P1 obtained by the above operation. 25 μL of assay solution (50 mM Tris, 100 mM sodium chloride, 5 mM magnesium chloride, 1 mM EDTA, 1 mM DTT (dithiothreitol), 10 μM GDP (guanosine diphosphate) and 0.5% BSA (bovine serum albumin), pH 7.4), 25 μL of test compounds solution diluted by assay solution and 25 μL of the membrane fraction (0.2 μg protein/μL) were added to each well, and the mixture was gently shaken at room temperature: for 30 minutes. Then, 25 μL of ^35S-GTP, and 25 μL of 50 nM S1P1 receptor selective agonist (1-[4-(4-phenyl-5-trifluoromethylthiophen-2-ylmethoxy)benzyl]azetidine-3-carboxylic acid, “J. Med. Chem.”, 2004, vol. 47, pp. 6662-6665, compound 18) were added to each well, respectively, and it was reacted at room temperature for 60 minutes. After the reaction, a reaction solution of each well was suction-filtered. After suction filtration, ice-colded wash solution (50 mM Tris, 100 mM sodium chloride, […] and 1 mM EDTA, pH 7.4) was added to each well, and moreover filters were washed by suction filtration. This wash procedure was performed three times. A bottom of the plate containing the filters was dried at 60° C. After drying, 30 μL of MicroScinti-40 (PerkinElmer) was added to each well, and the radioactivity adsorbed on the filter was determined by TopCount NXT (registered trademark) (PerkinElmer) after shaking for 30 minutes at room temperature. […]

[1] = system: Naïve T cells-transferred colitis model; test: Drug efficiency evaluation in naïve T cells-transferred colitis model; type: in vivo; conditions: SCID mice, mean ± standard error
Method: The Drug Efficiency Evaluation in Naïve T Cells—Transferred Colitis Model
(1) Purification of CD45RB Positive Naïve T Cells and Transfer the Cells into SCID Mice
After female BALB/c mice (Charles River Japan, 8-weeks-old in use) were sacrificed by blood removal from cervical vein under inhalation anesthesia with isoflurane spleens were harvested from these mice. Spleens were washed with ice-cold PBS (phosphate buffered saline, Invitrogen) and stored in 50 mL tube containing PBS on ice. Spleens stored on ice were mashed with the upper portion of slide glasses inside a biological safety cabinet, and filtered through a cell filter (pore size 70 μm), and the filtrate was centrifuged at 500×g, room temperature for 5 minutes. After the supernatant was removed, 12 mL of RBC lysis buffer (Biolegend) was added to a cell pellet and it was resuspended and left for about 3 minutes. The supernatant was removed after centrifugation and the hemolytic process was performed by repeating same procedure once again.
The cells were purified with Mouse Naive T cell CD4^+/CD62L^+/CD44^low Colum Kit (R&D systems). The cells performed with the hemolytic process, were suspended by column buffer attached to the above Column Kit, and purified through a cell filter (pore size 70 μm) after centrifugation at 500×g, room temperature for 5 minutes. The cells were resuspended with column buffer, and antibody cocktails attached to the above Column Kit were added to this and mixed. After that, the cells were purified according to the protocol of the Column Kit.
Next, purification of CD45RB positive cells was performed by MACS (registered mark) separator (Miltenyi Biotec). The purified cells were suspended with 2 mL of PBS containing 0.5% BSA, and reacted at room temperature for 15 minutes after adding FITC (fluorescein isothiocyanate)-labeled anti-CD45RB antibody (Biolegend). After washing two times with PBS containing 0.5% BSA by centrifugation, the cells were resuspended with 2 mL of PBS containing 0.5% BSA and reacted at room temperature for 10 minutes after adding anti-FITC microbeads (Miltenyi Biotec). After washing one time with PBS containing 0.5% BSA by centrifugation, the cells were resuspended with 3 mL of PBS containing 0.5% BSA, and a fraction of CD45RB positive cells was purified according to the protocol of MACS (registered trademark) separator. In the process of elution after detached from MACS (registered trademark) separator, the cells were separated with 5 mL of PBS. The cell suspension was washed one time by centrifugation with PBS, resuspended by appropriate PBS and measured the cell number as naïve T cells suspension for transfer. Female CB17/Icr-scid/scid Jcl (SCID mice) (Charles River Japan, 8-weeks-old in use) were induced colitis by intraperitoneal administration of 500 μL (divided into 250 μL two times) of naïve T cells suspension prepared at 6×10^5 cells/mL by PBS.
(2) Measurement of Body Weight and Procedure for Administration of Drugs
Body weights were measured at day 1, 8 and 15 as day 0 when naïve T cells were transferred to mice. Mice were grouped evenly, based on body weight change at day 15. The measurement of body weight was performed two times a week after day 15. A solvent (Vehicle) and test compounds were administered twice a day from the evening of day 15. The administration solution was prepared as indicated below. Firstly, 0.5% methyl cellulose (Wako pure chemicals) of 1/10 volume of total volume was added to test compound, and a suspension was prepared by sonication. […] After that, administration solutions for test compounds were prepared by sonication while adding distilled water of 9/10 volume of total volume to these suspensions in several batches. A solution prepared in the same volume ratios of 0.5% methyl cellulose and distilled water as administration solutions for test compounds was used as vehicle. Administration solutions for vehicle or test compounds were orally administered to mice at 5 mL/kg.

[2] = oral twice a day, 1.5 mg/kg, vehicle group = 100%

SMILES: CCC(Nc1ccc(C)c(CN2CC(C(=O)O)C2)c1)c1ccc(Cl)c(C)c1 (centres unmarked) [Comparative Example 2, 1-{5-[1-(4-chloro-3-methyl-phenyl)-propylamino]-2-methyl-benzyl}-azetidine-3-carboxylic acid, reference compound]
Number of lymphocytes (% of Vehicle) After 6 hours (blood lymphocytes; 1 mg/kg): 39.9 % of Vehicle
Number of lymphocytes (% of Vehicle) After 24 hours (blood lymphocytes; 1 mg/kg): 82.3 % of Vehicle
Number of lymphocytes (% of Vehicle) After 48 hours (blood lymphocytes; 1 mg/kg): 109.6 % of Vehicle
Number of lymphocytes (% of Vehicle) After 6 hours (blood lymphocytes; 10 mg/kg): 16.8 % of Vehicle
Number of lymphocytes (% of Vehicle) After 24 hours (blood lymphocytes; 10 mg/kg): 94.0 % of Vehicle
Number of lymphocytes (% of Vehicle) After 48 hours (blood lymphocytes; 10 mg/kg): 110.3 % of Vehicle
time course of the number of lymphocytes in blood (in words) (blood lymphocytes; 6 to 48 hours after administration): transient reduction of the number of lymphocytes in blood

SMILES: C[C@]12C=CC(=O)C=C1CC[C@@H]1[C@@H]2[C@@H](O)C[C@@]2(C)[C@H]1CC[C@]2(O)C(=O)CO [Prednisclone, reference compound]
Body weight change ratio (%) ([1]; oral twice a day from day 15, 1.5 mg/kg, day 30): −10.4 ± 1.4%
Colon weight (%) [1, 2]: 58.3 ± 18.9%
DAI score (%) [1, 2]: 104.4 ± 20.0%

SMILES: Nc1ccc(O)c(C(=O)O)c1 [5-Aminosalicylic acid, reference compound]
Colon weight (%) ([1]; oral twice a day, vehicle group = 100%): 75.9 ± 58.3%

Further lines, with some results ahead:

IC50 (human S1P1 (EDG-1)): 2.9 nM
SMILES: CCN(c1ccc(Cl)c(C(F)(F)F)c1)C1CCc2c1ccc(C)c2CN1CC(C(=O)O)C1 (centres unmarked) [Compound 2-8, 1-{1-[(4-Chloro-3-trifluoromethylphenyl)(ethyl)amino]-5-methylindan-4-ylmethyl}azetidine-3-carboxylic acid]
Number of lymphocytes (% of Vehicle) After 6 hours (blood lymphocytes; 1 mg/kg): 15.1 % of Vehicle
Number of lymphocytes (% of Vehicle) After 24 hours (blood lymphocytes; 1 mg/kg): 34.5 % of Vehicle
Number of lymphocytes (% of Vehicle) After 48 hours (blood lymphocytes; 1 mg/kg): 87.7 % of Vehicle
Number of lymphocytes (% of Vehicle) After 6 hours (blood lymphocytes; 10 mg/kg): 13.7 % of Vehicle
Number of lymphocytes (% of Vehicle) After 24 hours (blood lymphocytes; 10 mg/kg): 12.3 % of Vehicle
Number of lymphocytes (% of Vehicle) After 48 hours (blood lymphocytes; 10 mg/kg): 33.4 % of Vehicle

IC50 (human S1P1 (EDG-1)): 6.7 nM
SMILES: Cc1ccc(C(C)N(C)c2ccc(Cl)c(C(F)(F)F)c2)cc1CN1CC(C(=O)O)C1 (centres unmarked) [Compound 2-25, 1-(5-{1-[(4-Chloro-3-trifluommethylphenyl)(methyl)amino]ethyl}-2-methylbenzyl)azetidine-3-carboxylic acid]

IC50 (human S1P1 (EDG-1)): 3.5 nM
SMILES: CCN(c1ccc(Cl)c(C)c1)C(C)c1ccc(C(F)(F)F)c(CN2CC(C(=O)O)C2)c1 (centres unmarked) [Compound 2-43, 1-(5-{1-[(4-Chloro-3-methylphenyl)(ethyl)amino]ethyl}-2-trifluoromethylbenzyl)azetidine-3-carboxylic acid]

IC50 (human S1P1 (EDG-1)): 6.7 nM
SMILES: Cc1cc(N(C)Cc2ccc(C)c(CN3CC(C(=O)O)C3)c2)ccc1Cl [Compound 2-2]

IC50 (human S1P1 (EDG-1)): 0.8 nM
SMILES: CCC(c1ccc(C)c(CN2CC(C(=O)O)C2)c1)N(CC)c1ccc(Cl)c(C(F)(F)F)c1 (centres unmarked) [Compound 2-45, 1-(5-{1-[(4-Chloro-3-trifluoromethylphenyl)(ethyl)amino]propyl}-2-methylbenzyl)azetidine-3-carboxylic acid]

IC50 (human S1P1 (EDG-1)): 3.9 nM
SMILES: CCN(Cc1cccc(CN2CC(C(=O)O)C2)c1C)c1ccc(Cl)c(C)c1 [Compound 2-4]
